The text below walks through data of patent US9745266B2 (THE REGENTS OF THE UNIVERSITY OF COLORADO, A BODY CORPORATE, priority 2013, dated 2017).

The MIC is the lowest concentration found to suppress growth. The term GI50 denotes the concentration at which growth is held to half of that of the control. A high value points to less potent growth inhibition.

Molecules are shown by their SMILES. ≈ marks a conversion by molar mass, not a printed value. Like-named read-outs stand apart in the source and are kept apart here. Some results are limits rather than exact numbers.

In one data set the test system is MRSA ATCC 33592. Description: Minimum resensitizing concentration (MRC), modified broth microdilution. Format: cell-based, S. aureus. The conditions noted are these: ATCC 33592. On the procedure: (§1) For these activity tests, AMOXICILLIN® was used in combination with clavulanic acid (a.k.a., AUGMENTIN®), CEFAZOLIN®, and MEROPENEM® (an ultra-broad-spectrum carbapenem). […] To assess activity of each analog as a resistance-modifying agent (RMA), a modified broth microdilution assay was used. Briefly, this involves incubating MRSA with 2-fold serial dilutions of a compound in the presence of each individual antibiotic at its Clinical Laboratory Standards Institutes (CLSI)-defined sensitive concentration. For AMOXICILLIN®/clavulanic acid, this concentration is 4/2 μg/ml (8-fold potentiation), for CEFAZOLIN®, 8 μg/ml (16-fold potentiation) and for MEROPENEM®, 4 μg/ml (4-fold potentiation). Following overnight incubation, plates were examined for bacterial growth, or lack thereof. Compounds were tested at concentrations ranging from 0.5-32 μg/ml. […] The half growth inhibitory concentration (GI50) of each analog was determined by fitting the data using KaleidaGraph (v4.1.1, Synergy Software).
(§2) A modified broth microdilution assay was employed by incubating MRSA (ATCC: BAA-44) with Of1 in 2-fold series dilution in the presence of individual antibiotics at the highest sensitive concentration at 37° C. overnight. […] The MRC values were also determined for another three MRSA strains. […] Furthermore, the mammalian toxicity of Of1 was evaluated using human liver hepatocellular carcinoma HepG2 cell line in CellTiter Glo™ mammalian viability assay (Promega).
(§3) MRC screens were performed as follows: antibiotic MIC values where S. aureus is considered susceptible were determined from the CLSI handbook supplement. Analogs of Of1 were diluted to 5 mg/ml in DMSO. Antibiotic was prepared at twice the intended final concentration in Mueller Hinton Broth (MHB). For amoxicillin/clavulanic acid, the initial concentration was 8/4 μg/ml, for meropenem 8 μg/ml and for cefazolin 16 μg/ml. 50 μl of the antibiotic containing media was added to each well of 96 well plates and 100 μl was added to the top row. 1.28 μl of 5 mg/ml alkaloid solution was added to the top row of each plate to afford a concentration of 64 μg/ml in the top row of each plate and two fold serial dilutions were performed down the columns. Once the plates were prepared, a day culture of MRSA was diluted to OD600 0.002 and 50 μl was added to each well. The final concentration of MRSA was OD600 0.001, the final concentration of amoxicillin/clavulanic acid was 4/2 μg/ml, the final concentration of meropenem was 4 μg/ml the final concentration of cefazolin was 8 μg/ml, and the highest concentration of Of1 analog tested was 32 μg/ml. Plates were incubated overnight at 37° C. with shaking. The MRC value was determined as the concentration of Of1 analog in the presence of antibiotic at which there was no observable overnight growth.
In general terms: Dilution methods test growth across graded concentrations, often in twofold steps.

Data set [1] has as its system MRSA ATCC BAA-44. Described as above. It is filed as cell-based, S. aureus. Particulars: ATCC BAA-44; oxacillin at highest sensitive concentration. On the procedure: as §1, §2, §3
In data set [2] the test system is ATCC 700789 (vancomycin intermediate resistant S. aureus, VISA). The data set is described as follows: Minimum resensitizing concentration (MRC). Format: cell-based. The protocol:
(§4) A modified broth microdilution assay was employed by incubating MRSA (ATCC: BAA-44) with Of1 in 2-fold series dilution in the presence of individual antibiotics at the highest sensitive concentration at 37° C. overnight. […] This is probably due to both the different sensitive concentration defined for each antibiotic and the different level of resistance of MRSA to various antibiotics. The MRC values were also determined for another three MRSA strains. The strain 33592 (ATCC) behaves similarly to BAA-44, and their MRCs for the three antibiotics tested are all 4 μg/mL. […] ATCC 700789 is particularly interesting, because it is also known as a vancomycin intermediate resistant S. aureus (VISA). […] Furthermore, the mammalian toxicity of Of1 was evaluated using human liver hepatocellular carcinoma HepG2 cell line in CellTiter Glo™ mammalian viability assay (Promega).

The test system of the next data set is MRSA ATCC BAA-1683. The data set is described as follows: Minimum resensitizing concentration (MRC). It is filed as cell-based, S. aureus. The protocol:
as §4

The test system of data set [3] is MRSA ATCC BAA-44. Description: MIC in the presence of 20 μM Of1 / alkaloid. Format: cell-based, S. aureus. The protocol:
(§5) Indoline alkaloid compounds were then screened for the ability to potentiate the activity of methicillin against MRSA. A multi-drug resistant MRSA strain (ATCC: BAA-44) was selected for the initial screening. […] To each well, 20 μM of each individual indoline alkaloid was added and the plates were incubated at 37° C. for 16 hrs.
(§6) The MRSA strain ATCC BAA-44 and the methicillin-sensitive S. aureus (MSSA) strain ATCC 25923 were used to determine the MIC values of various antimicrobial compounds in the presence of 20 μM Of1. The experiment was conducted similarly to the CLSI MIC determination described previously; however, MHB was supplemented with 40 μM Of1 prior to set up and inoculation. The final concentration of Of1 after inoculation with BAA-44 was 20 μM.

Data set [4] relates to methicillin-sensitive S. aureus (MSSA, ATCC: 25923). The data set is described as follows: MIC, CLSI broth microdilution. Format: cell-based. Particulars: Staphylococcus aureus; MSSA ATCC 25923, compound alone. On the procedure:
as §5
All antimicrobial compounds were purchased from Sigma-Aldrich. The growth media used for all MIC experiments was Mueller Hinton Broth (MHB) purchased from HIMEDIA through VWR (cat: 95039-356). The inoculum was prepared by diluting a bacterial day culture (OD600 0.15-0.4) to OD600 0.002. This dilution was further diluted two fold when added to 96 well microplates (USA Scientific CytoOne 96-well TC plate, cat: CC7682-7596) for a final inoculum concentration of OD600 0.001. All plates were incubated at 37° C. with shaking for 18 hours (overnight) before results were interpreted.

The test system of a further data set is HeLa cells. The data set is described as follows: Mammalian cytotoxicity, CellTiter-Glo viability assay. Format: cell-based, human. Particulars: 24 hours. On the procedure:
To evaluate the cytotoxicity of Of1 in mammalian cells, a cell viability assay was carried out using CellTiter-Glo luminescent cell viability assay kit (Promega). Human cervixcal adenocarcinoma HeLa cells were seeded on white, cell-culture treated 96-well plates (Corning: 3917) with Dulbecco's modified Eagle's medium (DMEM) supplemented with 10% fetal calf serum (FCS), 1% penicillin/streptomycin, at the densities of 20,000 cells/well. The medium volume for each well was 100 μL. Cells were incubated at 37° C. in 5% CO2/95% air for 16 hours. The medium was removed from each well and replaced with 99 μL of warmed fresh medium. To each well, 1 μL of Of1 analog was added in DMSO to final concentrations of 0.5-32 μg/mL. Each series was performed in triplicate. After incubation at 37° C. for another 24 hours, the plates were equilibrated to room temperature for 30 minutes. 100 μL of CellTiter-Glo reagent (Promega) was added to each well and mixed for 2 minutes on an orbital shaker. The plate was incubated at room temperature for another 10 minutes to stabilize luminescent signal. The luminescence of each sample was recorded in an Envision Multilabel Plate Reader (Perkin Elmer).
(In general: ATP-based viability assays read luminescence as a measure of living cells.)

Data set [5] can be described thus: Mammalian toxicity, CellTiter Glo viability assay. Format: cell-based, human. Particulars: human, HepG2 cells. On the procedure:
as §4

In the next data set the test system is HepG2 cells. Description: Mammalian toxicity, CellTiter Glo viability assay. Format: cell-based, human. The conditions noted are these: at 4 μg/mL. The protocol: as §4
Data set [6] concerns MSSA strain (ATCC: 25923). Description: Potentiation of β-lactam antibiotics by 20 μM Of1 in MSSA. It is filed as cell-based, S. aureus. Particulars: MSSA ATCC 25923. The protocol: Taken together, it appears that Of1 is a resistance-modifying agent specifically for β-lactam antibiotics.
as §6

In data set [7] the test system is MRSA ATCC BAA-44. The data set is described as follows: MIC, CLSI broth microdilution. It is filed as cell-based, S. aureus. The conditions noted are these: MRSA ATCC BAA-44, compound alone.

In the case of `C=C1CCC[C@@H]2Nc3ccc(Br)cc3[C@]12CCNS(=O)(=O)c1ccc(Cl)cc1` (stereo in doubt) [Of1, N-(2-(6-Bromo-4-methylene-2,3,4,4a,9,9a-hexahydro-1H-carbazol-4a-yl)ethyl)-4-chlorobenzenesulfonamide], the “MRC of Of1, amoxicillin/clavulanate” value (in the data set on MRSA ATCC 33592; in data set [2] (ATCC 700789 (VISA)); with MRSA ATCC BAA-1683) was 4 µg/mL each time. Also, the “MRC of Of1, cefazolin” value in the data set with MRSA ATCC 33592 was 4 µg/mL. Further, the “MRC of Of1, oxacillin” value in the data set on MRSA ATCC 33592 (oxacillin at highest sensitive concentration) is 4 µg/mL; in the data set on MRSA ATCC BAA-44 [1], 2 µg/mL; in data set [2] (ATCC 700789), >64 µg/mL; in the data set with MRSA ATCC BAA-1683 (32 μg/mL highest concentration tested), >32 µg/mL. For the same compound, the “fold potentiation of methicillin” value with MRSA ATCC BAA-44 [3] (20 μM (ca. 10 μg/mL) Of1, MRSA BAA-44) is on record as 16 fold. For the same compound, the “fold potentiation of all β-lactam antibiotics” value in the data set with MRSA ATCC BAA-44 [3] (20 μM Of1, MRSA BAA-44) was 8-128 fold. Besides, the “fold potentiation of meropenem” value with MRSA ATCC BAA-44 [3] (20 μM Of1, MRSA BAA-44) is 16 fold. For the same compound, the “MIC of methicillin in media supplemented with 20 μM alkaloid” value with MRSA ATCC BAA-44 [3] (MRSA ATCC BAA-44, methicillin MIC alone 128) stood at 8 µg/mL. For the same compound, the MIC in data set [4] is > 128 µg/mL; against MRSA ATCC BAA-44 [7], > 128 µg/mL; in the data set on MRSA ATCC BAA-44 [7] (Staphylococcus aureus, read-out: MIC), > 128 µg/mL. The results for the GI50 (in the data set with HeLa cells; in [5]) were 17.1 µg/mL (≈ 35.5 µM) and ~8.9 µg/mL (≈ 18.5 µM), respectively. Besides, the “cytotoxic effect against HepG2 cells” value in the data set on HepG2 cells was “no observable cytotoxic effect”. For the same compound, the “potentiation of β-lactam antibiotics in MSSA” value in data set [6] is “does not show any significant potentiation effect”.
